Results on 15 compounds are retold here after patent US20220380341A1, “INHIBITORS OF HIV-1 NEF FOR THE TREATMENT OF HIV DISEASE” (priority 2018, published 2022).

The test system of data set [1] is TZM-bl cell line. Format: cell-based. The note with it: human, 1 μM. The procedure: (§1) In particular, the tables show antiretroviral activity as percent inhibition of HIV-1 infectivity at 1 μM. In brief, this assay uses the TZM-bl reporter cell line, which carries a stable copy of the HIV-1 LTR coupled to luciferase. Cells are infected with HIV-1NL4-3 in the presence and absence of each compound, and luciferase activity is measured 48 h later. This assay measures early events in the HIV-1 life cycle, including viral entry, reverse transcription, nuclear entry and integration, and viral transcription. All assays include control cells infected with Nef-defective HIV-1, which replicates at 30-50% of wild-type in this system. Results are normalized to percent inhibition relative to DMSO-treated control cells infected with wild-type HIV-1 (0% inhibition) and DMSO-treated cells infected with Nef-defective HIV-1 (100% of the Nef-dependent effect)—see column 3. In addition, cell viability is measured in the TZM-bl cell line in the presence of each test compound and in the absence of HIV-1 infection, using the Cell Titer Blue cell viability assay (Promega; column 4).

For data set [2], the system named is HIV-1NL4-3. The data set is described as follows: HIV-1 infectivity assay in TZM-bl reporter cell line (LTR-luciferase, 48 h). The settings on record: Human immunodeficiency virus 1, TZM-bl. Format: cell-based. The procedure: as §1
Data set [3] deals with HIV-1 NefNL4-3 (Human immunodeficiency virus type 1 group M subtype B, UniProt P03406, A33V/T15A/T51N/V11I). In words: Surface plasmon resonance binding to recombinant full-length Nef (NL4-3). The settings on record: for Nef NL4-3 Binding, SPR 1:1 or 2-site fitting KD1: 1:1 Langmuir fit where the KD2 cell says '1 to 1 fitting', else 2-site fit; for RU30/RUNef (extent of binding): response units at 30 μM relative to Nef immobilized on the SPR chip. On the technique in general: In SPR one partner is held on a chip, and binding of the other changes the refractive index at the surface.

Where [4] appears, read: 48 h, Table 1, TZM-bl cells, 1 μM, 48 h, 100% = Nef-defective HIV-1, read-out: HIV-1 Infectivity % Inhibition Norm. to Δ-Nef @ 1 μM.
The mark [5] stands for this setting: 1.0 μM, TZM-bl reporter cell line, Table 4, read-out: % Infectivity Inhibition.
Where [6] appears, read: KD, M, Table 4, SPR fit 1:1 Langmuir, KD = koff/kon.
[7] abbreviates: Table 4, 1:1 Langmuir fit, T = 1/koff.
Where [8] appears, read: KD, M, Table 4, SPR fit 2-step induced fit, KD = koff/kon × koff2/(koff2 + kon2).
Setting [9] is: Table 4, 2-step induced fit, T = 1/koff2.
Where [10] appears, read: Nef NL4-3 Binding, SPR 2-state fitting KD, Table 1, 2-step induced-fit model.

Like-named read-outs stand apart in the source and are kept apart here.

As for `CS(=O)(=O)c1ccc(-c2nn(-c3nc4ccccc4[nH]3)c(O)c2CCC2CCOCC2)cc1` [Compound I-149, 1-(1H-1,3-benzodiazol-2-yl)-3-(4-methanesulfonylphenyl)-4-[2-(oxan-4-yl)ethyl]-1H-pyrazol-5-ol], in data set [1], the “Percent Viability @ 1 μM (TZM-bl cells)” value amounted to 98.5%. In addition, in data set [2] (setting [4]), the inhibition at 1 µM came to 54.5%. Further, in data set [3], the Kd was determined as 2330 nM.

Turning to `Oc1c(CC2CCOCC2)c(C2CCOCC2)nn1-c1cc(C(F)(F)F)n[nH]1` [Compound I-621, 3-(oxan-4-yl)-4-[(oxan-4-yl)methyl]-5′-(trifluoromethyl)-2′H-[1,3′-bipyrazol]-5-ol], the “Percent Viability @ 1 μM (TZM-bl cells)” value in data set [1] turned out to be 95.3%. Further, the inhibition at 1 µM in data set [2] (48 h, Table 2, TZM-bl cells, 1 μM, 48 h, 100% = Nef-defective HIV-1, read-out: HIV-1 Infectivity % Inhibition Norm. to Δ-Nef @ 1 μM) turned out to be 42.4%. Besides, the “Nef NL4-3 Binding, SPR 1:1 or 2-site fitting KD1” value (shortened to “Nef NL4-3 Binding”) in data set [3] (Table 2) is “No interaction”.

As for `CC(C)OC(=O)N1CCC(c2nn(-c3nc4ccccc4[nH]3)c(O)c2CC2CCOCC2)CC1` [Compound I-725, propan-2-yl 4-[1-(1H-1,3-benzodiazol-2-yl)-5-hydroxy-4-[(oxan-4-yl)methyl]-1H-pyrazol-3-yl]piperidine-1-carboxylate], in data set [1], the “% Cell Viability” value stood at 95.6% and the “Percent Viability @ 1 μM (TZM-bl cells)” value is reported as 95.6%. Moreover, the inhibition at 1 µM in data set [2] (setting [5]) is 37.4%. The inhibition at 1 µM in data set [2] (setting [4]) is 37.4%. Further, in data set [3], the Kd amounted to 3290 nM and the “RU30/RUNef (extent of binding)” value is 3.88E- 03. Also, the Kd in data set [3] (setting [6]) turned out to be 3290 nM. The “T, minutes (residence time)” value in data set [3] (setting [7]) came out at 4.73E + 00 minutes.

For `CC(C)(O)C(=O)N1CCC(Cc2nn(-c3nc4ccccc4[nH]3)c(O)c2CCc2ccc(F)cc2)CC1` [Compound I-777, 1-(4-{[1-(1H-1,3-benzodiazol-2-yl)-4-[2-(4-fluorophenyl)ethyl]-5-hydroxy-1H-pyrazol-3-yl]methyl}piperidin-1-yl)-2-hydroxy-2-methylpropan-1-one], in data set [1], the “% Cell Viability” value worked out at 97.0% and the “Percent Viability @ 1 μM (TZM-bl cells)” value was 97.0%. Further, the inhibition at 1 µM in data set [2] (setting [5]) came out at 0%. In addition, the inhibition at 1 µM in data set [2] (setting [4]) is -3.6%. In data set [3], the Kd came out at 997 nM and the “RU30/RUNef (extent of binding)” value worked out at 2.23E- 03. In addition, the Kd in data set [3] (setting [6]) is 997 nM. Moreover, the “T, minutes (residence time)” value in data set [3] (setting [7]) was 3.50E + 00 minutes.

Turning to `CS(=O)(=O)N1CCC(c2nn(-c3nc4cc(Cl)ccc4[nH]3)c(O)c2CCC2CCOCC2)CC1` [Compound I-706, 1-(5-chloro-1H-1,3-benzodiazol-2-yl)-3-(1-methanesulfonylpiperidin-4-yl)-4-[2-(oxan-4-yl)ethyl]-1H-pyrazol-5-ol], in data set [1], the “% Cell Viability” value stood at 98.6% and the “Percent Viability @ 1 μM (TZM-bl cells)” value stood at 98.6%. For the same compound, in data set [2] (setting [5]), the inhibition at 1 µM is 9.8%. Moreover, in data set [2] (setting [4]), the inhibition at 1 µM stood at 9.8%. Moreover, in data set [3], the Kd was determined as 1170 nM and the “RU30/RUNef (extent of binding)” value came out at 2.34E- 03. For the same compound, the Kd in data set [3] (setting [6]) was 1170 nM. Further, the “T, minutes (residence time)” value in data set [3] (setting [7]) was found to be 3.95E + 00 minutes.

With `CS(=O)(=O)c1cccc(-c2nn(-c3nc4cccnc4[nH]3)c(O)c2CCc2ccc(F)cc2)c1` [Compound I-311, 4-[2-(4-fluorophenyl)ethyl]-1-{3H-imidazo[4,5-b]pyridin-2-yl}-3-(3-methanesulfonylphenyl)-1H-pyrazol-5-ol], the “Percent Viability @ 1 μM (TZM-bl cells)” value in data set [1] is reported as 94.5%. The inhibition at 1 µM in data set [2] (setting [4]) is 29.8%. Also, the Kd in data set [3] came out at 1010 nM.

`O=C(Cc1ccncc1)N1CCCC(c2nn(-c3nc4ccccc4[nH]3)c(O)c2CCc2ccc(F)cc2)C1` (centres unmarked) [Compound I-757, 1-{3-[1-(1H-1,3-benzodiazol-2-yl)-4-[2-(4-fluorophenyl)ethyl]-5-hydroxy-1H-pyrazol-3-yl]piperidin-1-yl}-2-(pyridin-4-yl)ethan-1-one]: the “Percent Viability @ 1 μM (TZM-bl cells)” value in data set [1] stood at 102.8%. In addition, in data set [2] (setting [4]), the inhibition at 1 µM is 17.2%. The Kd in data set [3] was 2390 nM.

As to `Oc1c(CC2CCOCC2)c(-c2ccccc2F)nn1-c1nc2ccccc2[nH]1` [Compound I-186, 1-(1H-1,3-benzodiazol-2-yl)-3-(2-fluorophenyl)-4-[(oxan-4-yl)methyl]-1H-pyrazol-5-ol], in data set [1], the “% Cell Viability” value is on record as 99.3%. For the same compound, in data set [2] (setting [5]), the inhibition at 1 µM turned out to be 61.5%. In data set [3] (setting [8]), the Kd is 11700 nM. In data set [3] (setting [9]), the “T, minutes (residence time)” value worked out at 7.72E + 00 minutes. Besides, the “RU30/RUNef (extent of binding)” value in data set [3] is 1.62E- 02.

As to `O=C(C1CCOC1)N1CCC(c2nn(-c3nc4ccccc4[nH]3)c(O)c2CCc2ccc(F)cc2)CC1` (centres unmarked) [Compound I-736, 1-(1H-1,3-benzodiazol-2-yl)-4-[2-(4-fluorophenyl)ethyl]-3-[1-(oxolane-3-carbonyl)piperidin-4-yl]-1H-pyrazol-5-ol], the “% Cell Viability” value in data set [1] is on record as 96.0%. Also, the “Percent Viability @ 1 μM (TZM-bl cells)” value in data set [1] is on record as 96.0%. Besides, the inhibition at 1 µM in data set [2] (setting [5]) and in data set [2] (setting [4]) was 7.5% each time. Moreover, the Kd amounted to 99.3 nM in data set [3]; 2.06 nM in data set [3] (setting [8]); 2.06 nM in data set [3] (setting [10]); 1940 nM in data set [3] (read-out: Nef NL4-3 Binding, SPR 1:1 or 2-site fitting KD2, Table 1, 2-site fit, second component). The “T, minutes (residence time)” value in data set [3] (setting [9]) amounted to 1.97E + 03 minutes. The “RU30/RUNef (extent of binding)” value in data set [3] is 1.02E- 02.

Turning to `CN(C)S(=O)(=O)N1CCC(c2nn(-c3nc4ccccc4[nH]3)c(O)c2CCC2CCOCC2)CC1` [Compound I-724, 4-[1-(1H-1,3-benzodiazol-2-yl)-5-hydroxy-4-[2-(oxan-4-yl)ethyl]-1H-pyrazol-3-yl]-N,N-dimethylpiperidine-1-sulfonamide], the “Percent Viability @ 1 μM (TZM-bl cells)” value in data set [1] was found to be 98.6%. For the same compound, the inhibition at 1 µM in data set [2] (setting [4]) worked out at 55.8%. Also, the “Nef NL4-3 Binding” value in data set [3] (Table 1) is “No Interaction”.

For `CCOC(=O)c1nn(-c2nc3ccccc3[nH]2)c(O)c1CCc1ccc(F)cc1` [Compound I-404, ethyl 1-(1H-1,3-benzodiazol-2-yl)-4-[2-(4-fluorophenyl)ethyl]-5-hydroxy-1H-pyrazole-3-carboxylate], in data set [1], the “Percent Viability @ 1 μM (TZM-bl cells)” value is on record as 100.5%. Moreover, the inhibition at 1 µM in data set [2] (setting [4]) amounted to 1.3%. The Kd in data set [3] came out at 128 nM.

On to `O=C(CN1CCOCC1)N1CCCC1c1nn(-c2nc3ccccc3[nH]2)c(O)c1CCc1ccc(F)cc1` (centres unmarked) [Compound I-763, 1-{2-[1-(1H-1,3-benzodiazol-2-yl)-4-[2-(4-fluorophenyl)ethyl]-5-hydroxy-1H-pyrazol-3-yl]pyrrolidin-1-yl}-2-(morpholin-4-yl)ethan-1-one], for which the “Percent Viability @ 1 μM (TZM-bl cells)” value in data set [1] is recorded as 97.6%. Moreover, in data set [2] (setting [4]), the inhibition at 1 µM stood at 11%. In addition, the Kd in data set [3] stood at 422 nM.

For `Cc1ccn(CCc2c(-c3ccc(C(F)(F)F)cc3)nn(-c3nc4cccnc4[nH]3)c2O)n1` [Compound I-303, 1-{3H-imidazo[4,5-b]pyridin-2-yl}-4-[2-(3-methyl-1H-pyrazol-1-yl)ethyl]-3-[4-(trifluoromethyl)phenyl]-1H-pyrazol-5-ol], in data set [1], the “% Cell Viability” value is 98.3% and the “Percent Viability @ 1 μM (TZM-bl cells)” value is recorded as 98.3%. The inhibition at 1 µM in data set [2] (setting [5]) stood at 40.1%. The inhibition at 1 µM in data set [2] (setting [4]) turned out to be 40.6%. In data set [3], the Kd turned out to be 396 nM and the “RU30/RUNef (extent of binding)” value was 3.06E- 03. Moreover, the Kd in data set [3] (setting [6]) came to 396 nM. The “T, minutes (residence time)” value in data set [3] (setting [7]) is recorded as 9.47E + 01 minutes.

Consider `Cc1ccn(CCc2c(-c3ccc(C(F)(F)F)cc3)nn(-c3nc4ccc(Cl)cc4[nH]3)c2O)n1` [Compound I-163, 1-(6-chloro-1H-1,3-benzodiazol-2-yl)-4-[2-(3-methyl-1H-pyrazol-1-yl)ethyl]-3-[4-(trifluoromethyl)phenyl]-1H-pyrazol-5-ol], for which the “% Cell Viability” value in data set [1] was 96.6%. The “Percent Viability @ 1 μM (TZM-bl cells)” value in data set [1] is 96.6%. Further, the inhibition at 1 µM in data set [2] (setting [5]) and in data set [2] (setting [4]) was 0.3% in each case. The Kd in data set [3] is 1010 nM; in data set [3] (setting [8]), 5820 nM; in data set [3] (setting [10]), 5820 nM. Besides, the “T, minutes (residence time)” value in data set [3] (setting [9]) is on record as 1.44E + 01 minutes. Further, the “RU30/RUNef (extent of binding)” value in data set [3] is listed as 4.48E- 03.

As to `Oc1c(CCn2nccn2)c(-c2ccc(C(F)(F)F)cc2)nn1-c1nc2ccccc2[nH]1` [Compound I-141, 1-(1H-1,3-benzodiazol-2-yl)-4-[2-(2H-1,2,3-triazol-2-yl)ethyl]-3-[4-(trifluoromethyl)phenyl]-1H-pyrazol-5-ol], in data set [1], the “Percent Viability @ 1 μM (TZM-bl cells)” value is 99.5%. In data set [2] (setting [4]), the inhibition at 1 µM was determined as 8.7%. In data set [3] (Table 1), the “Nef NL4-3 Binding” value is “No Interaction”.

In general, inhibition refers to the drop in the measured response relative to a control, in per cent.
